# Test results taken from US11180462B2, “Microbiocidal oxadiazole derivatives” (SYNGENTA PARTICIPATIONS AG, priority 2015, dated 2021).
# Tests used:
# [1] = tested on: Puccinia recondita f. Sp. Tritici; test: Fungicidal activity against Puccinia recondita f. sp. tritici / wheat / leaf disc preventative (brown rust); type: in vivo; conditions: foliar, 200 ppm in the applied formulation, wheat leaf segments, preventative, compared to untreated control leaf disks, read-out: disease control
# Experimental: Leaf disks or leaf segments of various plant species are cut from plants grown in a greenhouse. The cut leaf disks or segments are placed in multiwell plates (24-well format) onto water agar. The leaf disks are sprayed with a test solution before (preventative) or after (curative) inoculation. Compounds to be tested are prepared as DMSO solutions (max. 10 mg/ml) which are diluted to the appropriate concentration with 0.025% Tween20 just before spraying. The inoculated leaf disks or segments are incubated under defined conditions (temperature, relative humidity, light, etc.) according to the respective test system. A single evaluation of disease level is carried out 3 to 14 days after inoculation, depending on the pathosystem. Percent disease control relative to the untreated check leaf disks or segments is then calculated.
# Fungicidal Activity Against Puccinia recondita f. Sp. Tritici/Wheat/Leaf Disc Preventative (Brown Rust)
# Wheat leaf segments cv. Kanzler were placed on agar in multiwell plates (24-well format) and sprayed with the formulated test compound diluted in water. The leaf disks were inoculated with a spore suspension of the fungus 1 day after application. The inoculated leaf segments were incubated at 19° C. and 75% relative humidity (rh) under a light regime of 12 hours light/12 hours darkness in a climate cabinet and the activity of a compound was assessed as percent disease control compared to untreated when an appropriate level of disease damage appears in untreated check leaf segments (7 to 9 days after application).
# The following compounds at 200 ppm in the applied formulation give at least 80% disease control in this test when compared to untreated control leaf disks under the same conditions, which show extensive disease development.
# [2] = tested on: Glomerella lagenarium (Colletotrichum lagenarium); test: Fungicidal activity against Glomerella lagenarium (Colletotrichum lagenarium) liquid culture / cucumber / preventative (anthracnose); type: cell-based; conditions: Colletotrichum orbiculare; 20 ppm in the applied formulation; liquid culture (PDB), growth inhibition measured photometrically after 3 to 4 days; compared to untreated control; read-out: disease control
# Procedure, shortened: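 Percent activity against the untreated check was derived from photometric growth measurements made 2 to 7 days after conidia in potato dextrose broth were combined with compound at 20 ppm. Cultures were kept dark at 24 °C and 96% humidity.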
SMILES,pest or weed control at 200 ppm [1] [%],inhibition of growth at 20 ppm [2] [%]
"O=C(c1ccccc1)N(Cc1ccc(-c2noc(C(F)(F)F)n2)cc1)CC1CC1 [Compound 1.247, N-(cyclopropylmethyl)-N-[[4-[5-(trifluoromethyl)-1,2,4-oxadiazol-3-yl]phenyl]methyl]-benzamide]",≥ 80,≥ 80
"C#CCN(Cc1ccc(-c2noc(C(F)(F)F)n2)cc1)C(=O)CC1CCCC1 [Compound 1.152, 2-cyclopentyl-N-prop-2-ynyl-N-[[4-[5-(trifluoromethyl)-1,2,4-oxadiazol-3-yl]phenyl]methyl]-acetamide]",≥ 80,≥ 80
"CON(Cc1c(F)cc(-c2noc(C(F)(F)F)n2)cc1F)C(=O)c1ccccc1Cl [Compound 1.598, 2-chloro-N-[[2,6-difluoro-4-[5-(trifluoromethyl)-1,2,4-oxadiazol-3-yl]phenyl]methyl]-N-methoxy-benzamide]",≥ 80,≥ 80
"CON(C(=O)C1=CCCC1)C(C)c1ccc(-c2noc(C(F)(F)F)n2)cc1 (stereo not shown) [Compound 1.258, N-methoxy-N-[1-[4-[5-(trifluoromethyl)-1,2,4-oxadiazol-3-yl]phenyl]ethyl]-cyclopentene-1-carboxamide]",≥ 80,≥ 80
"C#CCCC(=O)N(Cc1ccc(-c2noc(C(F)(F)F)n2)cc1)CC1CC1 [Compound 1.205, N-(cyclopropylmethyl)-N-[[4-[5-(trifluoromethyl)-1,2,4-oxadiazol-3-yl]phenyl]methyl]pent-4-ynamide]",≥ 80,≥ 80
"CON(C(=O)C=C(F)CCl)C(C)c1ccc(-c2noc(C(F)(F)F)n2)cc1 (stereo not shown) [Compound 1.252, 4-chloro-3-fluoro-N-methoxy-N-[1-[4-[5-(trifluoromethyl)-1,2,4-oxadiazol-3-yl]phenyl]ethyl]but-2-enamide]",≥ 80,≥ 80
"CC(=O)NCC(=O)N(Cc1ccc(-c2noc(C(F)(F)F)n2)cc1)OCc1ccc(Cl)cc1 [Compound 1.552, 2-ace tamido-N-[(4-chlorophenyl)-methoxy]-N-[[4-[5-(trifluoromethyl)-1,2,4-oxadiazol-3-yl]phenyl]methyl]-acetamide]",≥ 80,–
"O=C(CCl)N(Cc1ccc(-c2noc(C(F)(F)F)n2)cc1)Cc1ccco1 [Compound 1.462, 2-chloro-N-(2-furylmethyl)-N-[[4-[5-(trifluoromethyl)-1,2,4-oxadiazol-3-yl]phenyl]methyl]-acetamide]",≥ 80,≥ 80
"CON(Cc1ccc(-c2noc(C(F)(F)F)n2)cc1)C(=O)C1C(C=C(Cl)Cl)C1(C)C (stereo not shown) [Compound 1.62, 3-(2,2-dichlorovinyl)-N-methoxy-2,2-dimethyl-N-[[4-[5-(trifluoromethyl)-1,2,4-oxadiazol-3-yl]phenyl]methyl]-cyclopropane-carboxamide]",≥ 80,–
"CCCON(Cc1ccc(-c2noc(C(F)(F)F)n2)cc1)C(=O)COCCOC [Compound 1.298, 2-(2-methoxyethoxy)-N-propoxy-N-[[4-[5-(trifluoromethyl)-1,2,4-oxadiazol-3-yl]phenyl]methyl]-acetamide]",≥ 80,≥ 80
"COCCN(Cc1ccc(-c2noc(C(F)(F)F)n2)cc1)C(=O)C1(NC=O)CC1 [Compound 1.354, 1-formamido-N-(2-methoxyethyl)-N-[[4-[5-(trifluoromethyl)-1,2,4-oxadiazol-3-yl]phenyl]methyl]-cyclopropane-carboxamide]",≥ 80,–
"CON(Cc1ccc(-c2noc(C(F)(F)F)n2)cc1)C(=O)N1CCCO1 [Compound 3.66, N-methoxy-N-[[4-[5-(trifluoromethyl)-1,2,4-oxadiazol-3-yl]phenyl]methyl]-isoxazolidine-2-carboxamide]",≥ 80,≥ 80
"C#CCN(Cc1ccc(-c2noc(C(F)(F)F)n2)cc1)C(=O)Cc1ccccc1 [Compound 1.186, 2-phenyl-N-prop-2-ynyl-N-[[4-[5-(trifluoromethyl)-1,2,4-oxadiazol-3-yl]phenyl]methyl]-acetamide]",≥ 80,–
"CCCON(Cc1ccc(-c2noc(C(F)(F)F)n2)cc1)C(C)=O [Compound 1.320, N-propoxy-N-[[4-[5-(trifluoromethyl)-1,2,4-oxadiazol-3-yl]phenyl]methyl]-acetamide]",≥ 80,≥ 80
"CCC(COC)C(=O)N(Cc1ccc(-c2noc(C(F)(F)F)n2)cc1)CC1CCCO1 (stereo not shown) [Compound 1.440, 2-(methoxymethyl)-N-(tetrahydrofuran-2-ylmethyl)-N-[[4-[5-(trifluoromethyl)-1,2,4-oxadiazol-3-yl]phenyl]methyl]-butanamide]",≥ 80,≥ 80
"CCC(C)N(Cc1ccc(-c2noc(C(F)(F)F)n2)cc1)C(=O)C1CCCC1 (stereo not shown) [Compound 1.376, N-sec-butyl-N-[[4-[5-(trifluoromethyl)-1,2,4-oxadiazol-3-yl]phenyl]methyl]-cyclopentane-carboxamide]",≥ 80,≥ 80
"COCCN(Cc1ccc(-c2noc(C(F)(F)F)n2)cc1)C(=O)C=CC(C)=O [Compound 1.352, N-(2-methoxyethyl)-4-oxo-N-[[4-[5-(trifluoromethyl)-1,2,4-oxadiazol-3-yl]phenyl]methyl]-pent-2-enamide]",≥ 80,≥ 80
"O=C(c1cc2c(cc1Br)OCO2)N(Cc1ccc(-c2noc(C(F)(F)F)n2)cc1)C1CC1 [Compound 1.133, 6-bromo-N-cyclopropyl-N-[[4-[5-(trifluoromethyl)-1,2,4-oxadiazol-3-yl]phenyl]methyl]-1,3-benzodioxole-5-carboxamide]",≥ 80,≥ 80
"COCCN(Cc1ccc(-c2noc(C(F)(F)F)n2)cc1)C(=O)C=CC(F)(F)F [Compound 1.338, 4,4,4-trifluoro-N-(2-methoxyethyl)-N-[[4-[5-(trifluoromethyl)-1,2,4-oxadiazol-3-yl]phenyl]methyl]but-2-enamide]",≥ 80,≥ 80
"CCC(C)N(Cc1ccc(-c2noc(C(F)(F)F)n2)cc1)C(=O)c1ccoc1 (stereo not shown) [Compound 1.405, N-sec-butyl-N-[[4-[5-(trifluoromethyl)-1,2,4-oxadiazol-3-yl]phenyl]methyl]-furan-3-carboxamide]",≥ 80,≥ 80
"O=C(c1ccccc1Cl)N(Cc1ccc(-c2noc(C(F)(F)F)n2)cc1)C1CC1 [Compound 1.120, 2-chloro-N-cyclopropyl-N-[[4-[5-(trifluoromethyl)-1,2,4-oxadiazol-3-yl]phenyl]methyl]-benzamide]",≥ 80,≥ 80
"CON(Cc1ccc(-c2noc(C(F)(F)F)n2)cc1F)C(=O)c1ccccc1Cl [Compound 1.565, 2-chloro-N-[[2-fluoro-4-[5-(trifluoromethyl)-1,2,4-oxadiazol-3-yl]phenyl]methyl]-N-methoxy-benzamide]",≥ 80,≥ 80
"CC#CCOC(=O)N(Cc1ccc(-c2noc(C(F)(F)F)n2)cc1)OC [Compound 2.7, but-2-ynyl N-methoxy-N-[[4-[5-(trifluoromethyl)-1,2,4-oxadiazol-3-yl]phenyl]methyl]-carbamate]",≥ 80,≥ 80
"COc1ccc(C2(C(=O)N(Cc3ccc(-c4noc(C(F)(F)F)n4)cc3)C3CC3)CC2)cc1 [Compound 1.143, N-cyclopropyl-1-(4-methoxyphenyl)-N-[[4-[5-(trifluoromethyl)-1,2,4-oxadiazol-3-yl]phenyl]methyl]-cyclopropane-carboxamide]",≥ 80,–
"O=CNC1(C(=O)N(Cc2ccc(-c3noc(C(F)(F)F)n3)cc2)CC2CCCO2)CC1 (stereo not shown) [Compound 1.441, 1-formamido-N-(tetrahydrofuran-2-ylmethyl)-N-[[4-[5-(trifluoromethyl)-1,2,4-oxadiazol-3-yl]phenyl]methyl]-cyclopropane-carboxamide]",≥ 80,–
"O=C(Cc1ccc(Cl)cc1)N(Cc1ccc(-c2noc(C(F)(F)F)n2)cc1)CC1CC1 [Compound 1.234, 2-(4-chlorophenyl)-N-(cyclopropylmethyl)-N-[[4-[5-(trifluoromethyl)-1,2,4-oxadiazol-3-yl]phenyl]methyl]-acetamide]",≥ 80,–
"O=C(Cc1ccc(C(F)(F)F)cc1)N(Cc1ccc(-c2noc(C(F)(F)F)n2)cc1)C1CC1 [Compound 1.140, N-cyclopropyl-N-[[4-[5-(trifluoromethyl)-1,2,4-oxadiazol-3-yl]phenyl]methyl]-2-[4-(trifluoromethyl)-phenyl]acetamide]",≥ 80,–
